Test: wn = mass fraction of the nth substance listed
Conditions: 101 kPa, Liquid; for electrical conductivity: Alternating current cell with electrodes; for viscosity: Capillary tube (Ostwald / Ubbelohde) method; for mass density: Vibrating tube method

O=c1cc[nH]c(=O)[nH]1 [2,4(1H,3H)-pyrimidinedione] + CC(=O)[O-].CCn1cc[n+](C)c1
Conditions	electrical conductivity [S/m]	mass density [kg/m3]	viscosity [mPa·s]
298.15 K, w2 = 0	0.296	1097.6	128.5
298.15 K, w2 = 0.0486	0.221	1111	190.6
298.15 K, w2 = 0.1019	0.159	1125	294
298.15 K, w2 = 0.1471	0.11	1135.7	437.6
298.15 K, w2 = 0.2029	0.0807	1148.6	682.8
298.15 K, w2 = 0.2505	0.0585	1157.9	1010
298.15 K, w2 = 0.298	0.0388	1166.8	1589
303.15 K, w2 = 0	0.382	1094.5	95.23
303.15 K, w2 = 0.0486	0.293	1107.9	136.6
303.15 K, w2 = 0.1019	0.214	1122	204
303.15 K, w2 = 0.1471	0.156	1132.5	293.1
303.15 K, w2 = 0.2029	0.117	1145.2	441.4
303.15 K, w2 = 0.2505	0.0878	1154.6	630.8
303.15 K, w2 = 0.298	0.0602	1163.7	952.6
308.15 K, w2 = 0	0.48	1091.4	72.42
308.15 K, w2 = 0.0486	0.38	1104.9	100.9
308.15 K, w2 = 0.1019	0.288	1118.9	146.4
308.15 K, w2 = 0.1471	0.212	1129.3	204.2
308.15 K, w2 = 0.2029	0.163	1141.9	297.8
308.15 K, w2 = 0.2505	0.125	1151.2	413.1
308.15 K, w2 = 0.298	0.0892	1160.5	602.2
313.15 K, w2 = 0	0.594	1088.4	56.38
313.15 K, w2 = 0.0486	0.48	1101.8	76.6
313.15 K, w2 = 0.1019	0.372	1115.8	108.2
313.15 K, w2 = 0.1471	0.281	1126.2	147.1
313.15 K, w2 = 0.2029	0.221	1138.8	208.6
313.15 K, w2 = 0.2505	0.173	1148	281.8
313.15 K, w2 = 0.298	0.127	1157.1	398.2
318.15 K, w2 = 0	0.827	1085.3	44.79
318.15 K, w2 = 0.0486	0.592	1098.8	59.5
318.15 K, w2 = 0.1019	0.469	1112.8	82.2
318.15 K, w2 = 0.1471	0.362	1123.2	109.1
318.15 K, w2 = 0.2029	0.29	1135.7	150.9
318.15 K, w2 = 0.2505	0.233	1144.8	199.2
318.15 K, w2 = 0.298	0.176	1153.9	273.8
323.15 K, w2 = 0	0.986	1082.3	36.23
323.15 K, w2 = 0.0486	0.718	1095.8	47.16
323.15 K, w2 = 0.1019	0.579	1109.9	63.79
323.15 K, w2 = 0.1471	0.456	1120.2	82.98
323.15 K, w2 = 0.2029	0.371	1132.7	112.2
323.15 K, w2 = 0.2505	0.304	1141.7	145.2
323.15 K, w2 = 0.298	0.233	1150.8	194.8
328.15 K, w2 = 0	–	1079.3	29.78
328.15 K, w2 = 0.0486	–	1092.9	38.06
328.15 K, w2 = 0.1019	–	1106.9	50.53
328.15 K, w2 = 0.1471	–	1117.1	64.55
328.15 K, w2 = 0.2029	–	1129.6	85.56
328.15 K, w2 = 0.2505	–	1138.7	108.7
328.15 K, w2 = 0.298	–	1147.8	142.7
333.15 K, w2 = 0	–	1076.2	24.82
333.15 K, w2 = 0.0486	–	1089.9	31.2
333.15 K, w2 = 0.1019	–	1103.9	40.73
333.15 K, w2 = 0.1471	–	1114.1	51.22
333.15 K, w2 = 0.2029	–	1126.6	66.66
333.15 K, w2 = 0.2505	–	1135.7	83.31
333.15 K, w2 = 0.298	–	1144.7	107.3
338.15 K, w2 = 0	–	1073.3	20.95
338.15 K, w2 = 0.0486	–	1086.9	25.94
338.15 K, w2 = 0.1019	–	1100.9	33.34
338.15 K, w2 = 0.1471	–	1111.1	41.34
338.15 K, w2 = 0.2029	–	1123.6	52.92
338.15 K, w2 = 0.2505	–	1132.7	65.2
338.15 K, w2 = 0.298	–	1141.7	82.59
343.15 K, w2 = 0	–	1070.3	17.88
343.15 K, w2 = 0.0486	–	1083.9	21.84
343.15 K, w2 = 0.1019	–	1097.9	27.67
343.15 K, w2 = 0.1471	–	1108.1	33.87
343.15 K, w2 = 0.2029	–	1120.5	42.75
343.15 K, w2 = 0.2505	–	1129.6	51.97
343.15 K, w2 = 0.298	–	1138.7	64.84
